The text below walks through data of patent US12325866B2, “Systems and methods for growing cells in vitro” (Yissum Research Development Company of the Hebrew …, priority 2016, dated 2025).

In assay [1] the test system is primary chicken embryonic fibroblasts (CEF). Briefly: Proliferation of primary CEF in serum-free media / with supplements. The assay is classed as cell-based. The settings on record: serum-free medium, or minimal medium plus supplement (EGF 5 ng/ml, PGE2 0.01 μM, GH 10 ng/ml). The method, then:
The CSIFs readily grow on tissue culture plastic in DMEM/F12 medium supplemented with 15% FBS, and 2 mM of […] (FIG. 2D). There are several serum-free medium formulations for the growth of human and mouse fibroblasts, including PCS-201-040 (ATCC) and […] To develop a serum-free medium that supports the culture of CEF and CS IF, the present inventor formulated a minimal medium composed of DMEM/F12 supplemented with 0.1 μM dexamethasone, 10 μg/ml insulin, 5.5 μg/ml transferrin, and 5 ng/ml selenium (ITS), 12 μM linoleic and 12 μM oleic acids, and 2 mM of […]. Cells were plated in FBS containing medium, and transferred to minimal medium after overnight attachment. Basal medium was supplemented with growth factors and hormones showing that while heparin and T3 had little effect of CSIF growth (data not shown), the addition of basic Fibroblast Growth Factor (bFGF, 10 ng/ml) was essential (FIGS. 3C and 3F), showing 20±2 hours doubling time (data not shown).

Assay [2] relates to CSIF. Briefly: Serum-free medium development: sulforhodamine B stain and protein content after 72 hours. The class given is cell-based, chicken. The following applies: for Effect on CSIF growth / proliferation: supplement added to minimal serum-free medium, bFGF 10 ng/ml, EGF 5 ng/ml, PGE2 0.01 μM, GH 10 ng/ml. The method, then:
FIGS. 3A-F depict the development and identification of serum-free medium for CSIF propagation. Shown are sulforhodamine B stain (FIGS. 3A-E) and protein content quantification (FIG. 3F) following 72 hours of culture with 15% serum (“FBS”), minimal serum-free medium (MIN) alone (FIG. 3B) or with 10 ng/ml basic Fibroblast Growth Factor (bFGF, FIG. 3C), 5 ng/ml Epidermal Growth Factor (EGF, FIG. 3D), 0.01 μM Prostaglandin E2 (PGE2, FIG. 3E), or 10 ng/ml Growth Hormone. Serum-free medium (SFM) contained MIN medium supplemented with bFGF (10 ng/ml), EGF (5 ng/ml), and PGE2 ([…]).
To develop a serum-free medium that supports the culture of CEF and CS IF, the present inventor formulated a minimal medium composed of DMEM/F12 supplemented with 0.1 μM dexamethasone, 10 μg/ml insulin, 5.5 μg/ml transferrin, and 5 ng/ml selenium (ITS), 12 μM linoleic and 12 μM oleic acids, and 2 mM of L-Analyl-L-Glutamine. Cells were plated in FBS containing medium, and transferred to minimal medium after overnight attachment. Basal medium was supplemented with growth factors and hormones showing that while heparin and T3 had little effect of CSIF growth (data not shown), the addition of basic Fibroblast Growth Factor (bFGF, 10 ng/ml) was essential (FIGS. 3C and 3F), showing 20±2 hours doubling time (data not shown).

Assay [3] concerns CSIF. Briefly: Dox-induced MyoD1+MYOG conversion to myocytes, rMLC3-GFP reporter. The assay is classed as cell-based, chicken. The settings on record: Dox-induced MyoD1+MYOG expression for 11 or 30 days. The source says:
FIGS. 5A-E depict conversion of CSIF to myocytes. FIG. 5A—Phase image of CSIF expressing Dox-inducible MyoD1 and Myogenin (MYOG) for 6 days (“d6”). FIGS. 5B-C—CSIF expressing rat myosin light chain COP-GFP reporter (rMLC3-GFP) following Dox-induced MyoD1+MYOG expression for 11 days (FIG. 5B) or 30 days (FIG. 5C). About 2-4% of the cultures become positive for MLC3 (Green). MLC3 positive myoblasts maintain elongated fiber morphology for over 30 days in vitro (FIG. 5C). FIG. 5D—Fluorescence staining using phalloidin (F-Actin probe, green) showing multinucleated cells (syncytia) as well as some striation following 7 days in culture. Nuclei are stained with Hoechst (blue). FIG. 5E—Immunofluorescence staining for α1-skeletal muscle actin (ACTA1, green) and Troponin T (red) showing a clear muscle phenotype by day 7 of induction. Nuclei are stained with Hoechst (blue).
To examine if similar conversion of chicken cells to myocytes is possible, the present inventor generated several nucleic acid constructs (vectors) as is schematically illustrated in FIGS. 6-8 and 12. […] A second lentiviral vector (SEQ ID NO:2, FIG. 7) was created for Dox-inducible chicken MYOG expression included the cMyogenin coding sequence (SEQ ID NO: 7) under the control of the minimal CMV promoter (SEQ ID NO: 8). […]

Assay [4] relates to CSIF. As to the kind of experiment: Conversion of CSIF to adipocytes in serum-free medium (LipidTOX neutral lipid stain). The assay is classed as cell-based, chicken. The method, then:
FIGS. 4A-D depict conversion of CSIF to adipocytes in serum-free medium. FIGS. 4A-C. LipidTOX™ (Thermo Fisher Scientific) neutral lipid stain of serum-free cultures of CSIF exposed to either 400 μM oleic acid (OA) alone (FIG. 4A) or with 0.5 mM IBMX (OA+IBMX, FIG. 4B), or 10 μM Rosiglitazone (OA+TZD, FIG. 4C) for 7 days. […] FIG. 4D—Normalized intracellular lipid content (in arbitrary fluorescent units) of CSIF cultures treated for 4 and 7 days as prescribed above.
To develop a protocol for conversion of the spontaneously immortalized chicken fibroblasts (CSIF line) under serum-free conditions, the present inventor seeded the CSIF at 70% confluence in the optimized serum-free DMEM/F12 medium supplemented with dexamethasone (0.1 μM), 1×ITS+3 (Sigma, 12771), and bFGF (10 ng/ml). The CSIF cells were treated for 4 or 7 days with 200 to 400 μM oleic acid alone, or in combination with 0.5 mM IBMX, or 10 μM of the FDA-approved small molecule Rosiglitazone.

In another assay the test system is primary CEF. The following applies: oleic acid 400 μM with 20% serum; selenium 100-300 μg/l with 2% serum; cited from earlier work.
The subject of assay [5] is stromal-vascular cells derived from chicken adipose tissues. The settings on record: oleic acid 200-400 μM, in the presence of serum; cited from earlier work.

With GH: Growth Hormone, the “Proliferation of primary CEF” value in assay [1] is reported as “supported the proliferation”. For the same compound, the “Effect on CSIF growth / proliferation” value with CSIF [2] is listed as “supported the proliferation”.

As for `C[C@H]1c2cccc(O)c2C(=O)C2=C(O)[C@]3(O)C(=O)C(C(N)=O)=C(O)[C@@H](N(C)C)[C@@H]3[C@@H](O)[C@@H]21` [doxycycline, Doxycycline], the “Cultures positive for MLC3” value with CSIF [3] is listed as 2-4%.

In the case of `CCCCCCCC/C=C\CCCCCCCC(=O)O` [oleic acid], the Lipid accumulation result in the assay on CSIF [4] (200 to 400 μM oleic acid, 4 or 7 days, serum-free) was “increased lipid accumulation”. Besides, in the assay on primary CEF, the “Lipid accumulation in primary CEF” value was “induced lipid accumulation”. Further, in assay [5], the “Differentiation of chicken preadipocytes to adipocytes” value is on record as “induces their differentiation to adipocytes”.

For heparin, the “Effect on CSIF growth / proliferation” value in the assay on CSIF [2] is listed as “little effect”.

With `CC(C)Cn1c(=O)n(C)c(=O)c2[nH]cnc21` [IBMX, 3-isobutyl-1-methylxanthine], the “Normalized intracellular lipid content” value in the assay on CSIF [4] (4 and 7 days, 400 μM OA with small molecule (FIG. 4D)) is recorded as “optimal results”. Moreover, the “Adipogenesis (neutral lipid stain)” value with CSIF [4] (7 days, with 400 μM oleic acid, IBMX 0.5 mM, Rosiglitazone 10 μM) is “strong adipogenesis”. For the same compound, in the assay with CSIF [4] (added to oleic acid, IBMX 0.5 mM, Rosiglitazone 10 μM), the “Adipogenic phenotype (cell shape)” value is “supported a rounded adipogenic phenotype”. In addition, in assay [5], the “Differentiation of chicken preadipocytes to adipocytes” value is given as “no affect”.

For bFGF: basic fibroblast growth factor, in the assay on CSIF [2] (minimal medium plus bFGF 10 ng/ml (data not shown)), the Doubling time is 20 ± 2 h. Besides, the “Effect on CSIF growth / proliferation” value in the assay on CSIF [2] is recorded as “essential”.

As for `N[C@@H](Cc1cc(I)c(Oc2ccc(O)c(I)c2)c(I)c1)C(=O)O` [T3], the “Effect on CSIF growth / proliferation” value in the assay with CSIF [2] was “little effect”.

For the compound `CCCCC[C@H](O)/C=C/[C@H]1[C@H](O)CC(=O)[C@@H]1C/C=C\CCCC(=O)O` [PGE2, Prostaglandin E2], the “Proliferation of primary CEF” value in assay [1] is listed as “supported the proliferation”. In addition, in the assay with CSIF [2], the “Effect on CSIF growth / proliferation” value was “supported the proliferation”.
